Values quoted from earlier work as cited in PMC8513935.

Tests used:
[1] = experimental, compiled by the authors from the literature (the ESI cites the sources)
[2] = log P octanol/water from commercial databases, averaged (the ESI); settings: Octanol (wet), 25 C
[3] = derived by the authors as gas->solvent minus gas->water (a hypothetical dry solvent; the ESI), not a two-phase measurement

Structure (SMILES): c1ccc2c(c1)Cc1ccccc1-2
- log K of transfer, gas to solvent ([1]; 2-Methylpropan-1-ol, 25 C): 6.75 log10 K
- log K of transfer, gas to solvent ([1]; 2-Methylpropan-2-ol, 25 C): 6.48 log10 K
- log K of transfer, gas to solvent ([1]; 3-Methylbutan-1-ol, 25 C): 6.56 log10 K
- log K of transfer, gas to solvent ([1]; Acetonitrile, 25 C): 7.12 log10 K
- log K of transfer, gas to solvent ([1]; Butan-1-ol, 25 C): 6.71 log10 K
- log K of transfer, gas to solvent ([1]; Butan-2-ol, 25 C): 6.56 log10 K
- log K of transfer, gas to solvent ([1]; Decan-1-ol, 25 C): 6.84 log10 K
- log K of transfer, gas to solvent ([1]; Ethanol, 25 C): 6.54 log10 K
- log K of transfer, gas to solvent ([1]; Heptan-1-ol, 25 C): 6.84 log10 K
- log K of transfer, gas to solvent ([1]; Hexadecane, 25 C): 6.92 log10 K
- log K of transfer, gas to solvent ([1]; Hexan-1-ol, 25 C): 6.79 log10 K
- log K of transfer, gas to solvent ([1]; Hexane, 25 C): 6.81 log10 K
- log K of transfer, gas to solvent ([1]; Methanol, 25 C): 6.48 log10 K
- log K of transfer, gas to solvent ([1]; Octan-1-ol, 25 C): 6.83 log10 K
- log K of transfer, gas to solvent ([1]; Pentan-1-ol, 25 C): 6.77 log10 K
- log K of transfer, gas to solvent ([1]; Propan-1-ol, 25 C): 6.66 log10 K
- log K of transfer, gas to solvent ([1]; Propan-2-ol, 25 C): 6.54 log10 K
- log K of transfer, gas to solvent ([1]; Water, 25 C): 2.45 log10 K
- log K of transfer, water to solvent [2]: 4.18 log10 K
- log K of transfer, water to solvent ([3]; 2-Methylpropan-1-ol, 25 C): 4.3 log10 K
- log K of transfer, water to solvent ([3]; 2-Methylpropan-2-ol, 25 C): 4.03 log10 K
- log K of transfer, water to solvent ([3]; 3-Methylbutan-1-ol, 25 C): 4.11 log10 K
- log K of transfer, water to solvent ([3]; Acetonitrile, 25 C): 4.67 log10 K
- log K of transfer, water to solvent ([3]; Butan-1-ol, 25 C): 4.26 log10 K
- log K of transfer, water to solvent ([3]; Butan-2-ol, 25 C): 4.11 log10 K
- log K of transfer, water to solvent ([3]; Decan-1-ol, 25 C): 4.39 log10 K
- log K of transfer, water to solvent ([3]; Ethanol, 25 C): 4.09 log10 K
- log K of transfer, water to solvent ([3]; Heptan-1-ol, 25 C): 4.39 log10 K
- log K of transfer, water to solvent ([3]; Hexadecane, 25 C): 4.47 log10 K
- log K of transfer, water to solvent ([3]; Hexan-1-ol, 25 C): 4.34 log10 K
- log K of transfer, water to solvent ([3]; Hexane, 25 C): 4.36 log10 K
- log K of transfer, water to solvent ([3]; Methanol, 25 C): 4.03 log10 K
- log K of transfer, water to solvent ([3]; Octan-1-ol(dry), 25 C): 4.38 log10 K
- log K of transfer, water to solvent ([3]; Pentan-1-ol, 25 C): 4.32 log10 K
- log K of transfer, water to solvent ([3]; Propan-1-ol, 25 C): 4.21 log10 K
- log K of transfer, water to solvent ([3]; Propan-2-ol, 25 C): 4.09 log10 K

Structure (SMILES): CC(C)C(C)C(C)C
- log K of transfer, gas to solvent ([1]; 1,2-Dichloroethane, 25 C): 3.19 log10 K
- log K of transfer, gas to solvent ([1]; Acetonitrile, 25 C): 2.51 log10 K
- log K of transfer, gas to solvent ([1]; Butan-1-ol, 25 C): 3.1 log10 K
- log K of transfer, gas to solvent ([1]; Butanone, 25 C): 3.22 log10 K
- log K of transfer, gas to solvent ([1]; Butyronitrile, 25 C): 3.01 log10 K
- log K of transfer, gas to solvent ([1]; CCl4, 25 C): 3.72 log10 K
- log K of transfer, gas to solvent ([1]; Chlorobenzene, 25 C): 3.69 log10 K
- log K of transfer, gas to solvent ([1]; Chloroform, 25 C): 3.63 log10 K
- log K of transfer, gas to solvent ([1]; Cyclohexanone, 25 C): 3.15 log10 K
- log K of transfer, gas to solvent ([1]; Dichloromethane, 25 C): 3.47 log10 K
- log K of transfer, gas to solvent ([1]; Ethanol, 25 C): 2.94 log10 K
- log K of transfer, gas to solvent ([1]; Hexadecane, 25 C): 3.48 log10 K
- log K of transfer, gas to solvent ([1]; Hexane, 25 C): 3.68 log10 K
- log K of transfer, gas to solvent ([1]; Methanol, 25 C): 2.66 log10 K
- log K of transfer, gas to solvent ([1]; Perfluoroalkane, 25 C): 2.45 log10 K
- log K of transfer, gas to solvent ([1]; Propan-1-ol, 25 C): 2.95 log10 K
- log K of transfer, gas to solvent ([1]; Propan-2-ol, 25 C): 2.95 log10 K
- log K of transfer, gas to solvent ([1]; Propanone, 25 C): 3.03 log10 K
- log K of transfer, gas to solvent ([1]; Propionitrile, 25 C): 2.83 log10 K
- log K of transfer, gas to solvent ([1]; Tetrahydrofuran, 25 C): 3.59 log10 K
- log K of transfer, gas to solvent ([1]; Water, 25 C): -1.88 log10 K
- log K of transfer, water to solvent [2]: 4.8 log10 K
- log K of transfer, water to solvent ([3]; 1,2-Dichloroethane, 25 C): 5.07 log10 K
- log K of transfer, water to solvent ([3]; Acetone, 25 C): 4.91 log10 K
- log K of transfer, water to solvent ([3]; Acetonitrile, 25 C): 4.39 log10 K
- log K of transfer, water to solvent ([3]; Butan-1-ol, 25 C): 4.98 log10 K
- log K of transfer, water to solvent ([3]; Butanone, 25 C): 5.1 log10 K
- log K of transfer, water to solvent ([3]; Butyronitrile, 25 C): 4.89 log10 K
- log K of transfer, water to solvent ([3]; CCl4, 25 C): 5.6 log10 K
- log K of transfer, water to solvent ([3]; Chlorobenzene, 25 C): 5.57 log10 K
- log K of transfer, water to solvent ([3]; Chloroform, 25 C): 5.51 log10 K
- log K of transfer, water to solvent ([3]; Cyclohexanone, 25 C): 5.03 log10 K
- log K of transfer, water to solvent ([3]; Dichloromethane, 25 C): 5.35 log10 K
- log K of transfer, water to solvent ([3]; Ethanol, 25 C): 4.82 log10 K
- log K of transfer, water to solvent ([3]; Hexadecane, 25 C): 5.36 log10 K
- log K of transfer, water to solvent ([3]; Hexane, 25 C): 5.56 log10 K
- log K of transfer, water to solvent ([3]; Methanol, 25 C): 4.54 log10 K
- log K of transfer, water to solvent ([3]; Perfluoroalkane, 25 C): 4.33 log10 K
- log K of transfer, water to solvent ([3]; Propan-1-ol, 25 C): 4.83 log10 K
- log K of transfer, water to solvent ([3]; Propan-2-ol, 25 C): 4.83 log10 K
- log K of transfer, water to solvent ([3]; Propionitrile, 25 C): 4.71 log10 K
- log K of transfer, water to solvent ([3]; Tetrahydrofuran, 25 C): 5.47 log10 K

Structure (SMILES): C1CC1
- log K of transfer, gas to solvent ([1]; Butan-1-ol, 25 C): 1.26 log10 K
- log K of transfer, gas to solvent ([1]; Hexadecane, 25 C): 1.31 log10 K
- log K of transfer, gas to solvent ([1]; Hexane, 25 C): 1.45 log10 K
- log K of transfer, gas to solvent ([1]; Perfluoroalkane, 25 C): 0.888 log10 K
- log K of transfer, gas to solvent ([1]; Propan-1-ol, 25 C): 1.15 log10 K
- log K of transfer, gas to solvent ([1]; Propan-2-ol, 25 C): 1.16 log10 K
- log K of transfer, gas to solvent ([1]; Water, 25 C): -0.55 log10 K
- log K of transfer, water to solvent [2]: 1.72 log10 K
- log K of transfer, water to solvent ([3]; Butan-1-ol, 25 C): 1.81 log10 K
- log K of transfer, water to solvent ([3]; Hexadecane, 25 C): 1.86 log10 K
- log K of transfer, water to solvent ([3]; Hexane, 25 C): 2 log10 K
- log K of transfer, water to solvent ([3]; Perfluoroalkane, 25 C): 1.44 log10 K
- log K of transfer, water to solvent ([3]; Propan-1-ol, 25 C): 1.7 log10 K
- log K of transfer, water to solvent ([3]; Propan-2-ol, 25 C): 1.71 log10 K
